Data: PubChem BioAssay AID248 (DTP/NCI, 2004)
Several values for one entry are separate records, joined by “and”; a condition that tells them apart may be missing. Identical values can stand only once. Inconclusive results and toxic doses are left out. Cut-off read from the data, not from the text of the source: active = T/C of 150% or more; inactive = T/C below 125%.

System: L1210 leukemia ip in BDF1 mice, survival T/C
Assay: NCI In Vivo Anticancer Drug Screen. Data for tumor model L1210 Leukemia (intraperitoneal) in B6D2F1 (BDF1) mice
Details: higher = longer survival
How it was run: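 In this screen, tumor-bearing mice given compound are compared to those given vehicle, and their survival values are reported as a treated-to-control quotient.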

[1] = endpoint: mean survival time, dose: 100.0 mg/kg/injection, schedule: Q01DX001 (ip), vehicle: saline
[2] = endpoint: mean survival time, dose: 100.0 mg/kg/injection, schedule: Q04DX003 (ip), vehicle: saline

Measured: T/C

COc1cc2cc3c4cc(OC)c(OC)cc4cc[n+]3c(C)c2cc1OC (tested in a mixture with another compound)
inactive: endpoint: mean survival time, dose: 5.0 mg/kg/injection, schedule: Q01DX009 (ip), vehicle: saline 105 % of control and 113 % of control | endpoint: mean survival time, dose: 8.0 mg/kg/injection, schedule: Q01DX009 (ip), vehicle: Klucel (hydroxypropylcellulose) (HPC) 114 % of control | endpoint: mean survival time, dose: 10.0 mg/kg/injection, schedule: Q01DX009 (ip), vehicle: saline 105 % of control | endpoint: mean survival time, dose: 16.0 mg/kg/injection, schedule: Q01DX009 (ip), vehicle: clinical formulation 116 % of control | endpoint: mean survival time, dose: 16.0 mg/kg/injection, schedule: Q03HX024 (ip), vehicle: saline 107 % of control | endpoint: mean survival time, dose: 40.0 mg/kg/injection, schedule: Q01DX009 (ip), vehicle: saline 116 % of control | endpoint: mean survival time, dose: 64.0 mg/kg/injection, schedule: Q03HX024 (ip), vehicle: saline 113 % of control | endpoint: mean survival time, dose: 80.0 mg/kg/injection, schedule: Q01DX009 (ip), vehicle: saline 117 % of control | endpoint: mean survival time, dose: 100.0 mg/kg/injection, schedule: Q04DX003 (ip), vehicle: saline with Tween-80 116 % of control | endpoint: mean survival time, dose: 128.0 mg/kg/injection, schedule: Q08DX002 (ip), vehicle: saline 112 % of control | endpoint: mean survival time, dose: 150.0 mg/kg/injection, schedule: Q04DX003 (ip), vehicle: saline with Tween-80 117 % of control | endpoint: mean survival time, dose: 200.0 mg/kg/injection, schedule: Q04DX002 (ip), vehicle: saline 105 % of control | endpoint: mean survival time, dose: 256.0 mg/kg/injection, schedule: Q04DX003 (ip), vehicle: saline 118 % of control | endpoint: median survival time, dose: 8.0 mg/kg/injection, schedule: Q01DX009 (ip), vehicle: Klucel (hydroxypropylcellulose) (HPC) 108 % of control | endpoint: median survival time, dose: 8.0 mg/kg/injection, schedule: Q01DX009 (ip), vehicle: clinical formulation 110 % of control | endpoint: median survival time, dose: 8.0 mg/kg/injection, schedule: Q01DX009 (ip), vehicle: other 117 % of control | endpoint: median survival time, dose: 8.0 mg/kg/injection, schedule: Q01DX009 (ip), vehicle: water 111 % of control | endpoint: median survival time, dose: 8.0 mg/kg/injection, schedule: Q01DX009 (oral), vehicle: other 99 % of control and 113 % of control | endpoint: median survival time, dose: 8.0 mg/kg/injection, schedule: Q01DX009 (sc), vehicle: other 104 % of control | endpoint: median survival time, dose: 16.0 mg/kg/injection, schedule: Q01DX009 (ip), vehicle: Klucel (hydroxypropylcellulose) (HPC) 104 % of control | endpoint: median survival time, dose: 16.0 mg/kg/injection, schedule: Q01DX009 (ip), vehicle: clinical formulation 114 % of control | endpoint: median survival time, dose: 16.0 mg/kg/injection, schedule: Q01DX009 (oral), vehicle: other 98 % of control and 105 % of control | endpoint: median survival time, dose: 16.0 mg/kg/injection, schedule: Q01DX009 (oral), vehicle: saline 100 % of control | endpoint: median survival time, dose: 16.0 mg/kg/injection, schedule: Q01DX009 (sc), vehicle: other 104 % of control | endpoint: median survival time, dose: 25.0 mg/kg/injection, schedule: Q01DX009 (ip), vehicle: Klucel (hydroxypropylcellulose) (HPC) 98 % of control and 99 % of control | endpoint: median survival time, dose: 25.0 mg/kg/injection, schedule: Q01DX009 (ip), vehicle: other 98 % of control and 99 % of control | endpoint: median survival time, dose: 25.0 mg/kg/injection, schedule: Q01DX009 (ip), vehicle: saline 99 % of control and 100 % of control | endpoint: median survival time, dose: 32.0 mg/kg/injection, schedule: Q01DX001 (oral), vehicle: saline 95 % of control and 100 % of control | endpoint: median survival time, dose: 32.0 mg/kg/injection, schedule: Q01DX001 (sc), vehicle: saline 95 % of control | endpoint: median survival time, dose: 32.0 mg/kg/injection, schedule: Q01DX009 (oral), vehicle: other 115 % of control and 116 % of control | endpoint: median survival time, dose: 32.0 mg/kg/injection, schedule: Q01DX009 (oral), vehicle: saline 100 % of control | endpoint: median survival time, dose: 32.0 mg/kg/injection, schedule: Q01DX009 (sc), vehicle: other 100 % of control | endpoint: median survival time, dose: 32.0 mg/kg/injection, schedule: Q01DX009 (sc), vehicle: saline 95 % of control | endpoint: median survival time, dose: 50.0 mg/kg/injection, schedule: Q01DX009 (ip), vehicle: Klucel (hydroxypropylcellulose) (HPC) 100 % of control and 101 % of control | endpoint: median survival time, dose: 50.0 mg/kg/injection, schedule: Q01DX009 (ip), vehicle: other 95 % of control and 96 % of control | endpoint: median survival time, dose: 50.0 mg/kg/injection, schedule: Q01DX009 (ip), vehicle: saline 100 % of control and 101 % of control | endpoint: median survival time, dose: 64.0 mg/kg/injection, schedule: Q01DX001 (ip), vehicle: other 118 % of control | endpoint: median survival time, dose: 64.0 mg/kg/injection, schedule: Q01DX001 (oral), vehicle: other 100 % of control and 101 % of control | endpoint: median survival time, dose: 64.0 mg/kg/injection, schedule: Q01DX001 (oral), vehicle: saline 100 % of control | endpoint: median survival time, dose: 64.0 mg/kg/injection, schedule: Q01DX001 (sc), vehicle: other 114 % of control | endpoint: median survival time, dose: 64.0 mg/kg/injection, schedule: Q01DX009 (oral), vehicle: other 106 % of control and 114 % of control | endpoint: median survival time, dose: 64.0 mg/kg/injection, schedule: Q01DX009 (oral), vehicle: saline 100 % of control | endpoint: median survival time, dose: 64.0 mg/kg/injection, schedule: Q01DX009 (sc), vehicle: other 101 % of control | endpoint: median survival time, dose: 64.0 mg/kg/injection, schedule: Q01DX009 (sc), vehicle: saline 100 % of control | endpoint: median survival time, dose: 64.0 mg/kg/injection, schedule: Q04DX003 (sc), vehicle: saline 100 % of control | endpoint: median survival time, dose: 100.0 mg/kg/injection, schedule: Q01DX009 (ip), vehicle: Klucel (hydroxypropylcellulose) (HPC) 96 % of control and 97 % of control | endpoint: median survival time, dose: 100.0 mg/kg/injection, schedule: Q01DX009 (ip), vehicle: saline 105 % of control and 108 % of control | endpoint: median survival time, dose: 128.0 mg/kg/injection, schedule: Q01DX001 (oral), vehicle: other 100 % of control and 104 % of control | endpoint: median survival time, dose: 128.0 mg/kg/injection, schedule: Q01DX001 (oral), vehicle: saline 100 % of control | endpoint: median survival time, dose: 128.0 mg/kg/injection, schedule: Q01DX001 (sc), vehicle: other 100 % of control | endpoint: median survival time, dose: 128.0 mg/kg/injection, schedule: Q01DX001 (sc), vehicle: saline 100 % of control | endpoint: median survival time, dose: 128.0 mg/kg/injection, schedule: Q01DX009 (ip), vehicle: water 98 % of control | endpoint: median survival time, dose: 128.0 mg/kg/injection, schedule: Q01DX009 (oral), vehicle: other 98 % of control and 110 % of control | endpoint: median survival time, dose: 128.0 mg/kg/injection, schedule: Q01DX009 (oral), vehicle: saline 100 % of control | endpoint: median survival time, dose: 128.0 mg/kg/injection, schedule: Q01DX009 (sc), vehicle: other 100 % of control | endpoint: median survival time, dose: 128.0 mg/kg/injection, schedule: Q01DX009 (sc), vehicle: saline 105 % of control | endpoint: median survival time, dose: 200.0 mg/kg/injection, schedule: Q01DX009 (ip), vehicle: Klucel (hydroxypropylcellulose) (HPC) 95 % of control and 96 % of control | endpoint: median survival time, dose: 200.0 mg/kg/injection, schedule: Q01DX009 (ip), vehicle: other 117 % of control | endpoint: median survival time, dose: 200.0 mg/kg/injection, schedule: Q01DX009 (ip), vehicle: saline 95 % of control and 98 % of control | endpoint: median survival time, dose: 256.0 mg/kg/injection, schedule: Q01DX001 (oral), vehicle: other 99 % of control and 100 % of control | endpoint: median survival time, dose: 256.0 mg/kg/injection, schedule: Q01DX001 (oral), vehicle: saline 100 % of control | endpoint: median survival time, dose: 256.0 mg/kg/injection, schedule: Q01DX001 (sc), vehicle: other 100 % of control | endpoint: median survival time, dose: 256.0 mg/kg/injection, schedule: Q01DX009 (oral), vehicle: other 100 % of control and 110 % of control | endpoint: median survival time, dose: 256.0 mg/kg/injection, schedule: Q01DX009 (oral), vehicle: saline 110 % of control | endpoint: median survival time, dose: 256.0 mg/kg/injection, schedule: Q01DX009 (sc), vehicle: other 99 % of control | endpoint: median survival time, dose: 256.0 mg/kg/injection, schedule: Q01DX009 (sc), vehicle: saline 110 % of control | endpoint: median survival time, dose: 256.0 mg/kg/injection, schedule: Q04DX003 (sc), vehicle: saline 100 % of control | endpoint: median survival time, dose: 400.0 mg/kg/injection, schedule: Q01DX009 (ip), vehicle: Klucel (hydroxypropylcellulose) (HPC) 96 % of control and 97 % of control | endpoint: median survival time, dose: 512.0 mg/kg/injection, schedule: Q01DX001 (oral), vehicle: other 98 % of control and 101 % of control | endpoint: median survival time, dose: 512.0 mg/kg/injection, schedule: Q01DX001 (oral), vehicle: saline 100 % of control | endpoint: median survival time, dose: 512.0 mg/kg/injection, schedule: Q01DX001 (sc), vehicle: other 99 % of control | endpoint: median survival time, dose: 512.0 mg/kg/injection, schedule: Q01DX001 (sc), vehicle: saline 100 % of control | endpoint: median survival time, dose: 512.0 mg/kg/injection, schedule: Q08DX002 (ip), vehicle: other 99 % of control | endpoint: median survival time, dose: 1024.0 mg/kg/injection, schedule: Q01DX001 (oral), vehicle: other 98 % of control and 100 % of control

O=C(CN1CCCCC1Cl)c1ccccc1 (stereo not drawn)
inactive: [1] 105 % of control | [2] 100 % of control

COC1OC(n2cnc3ncn(Cc4ccccc4)c3c2=N)C2OC(C)(C)OC12 (stereo not drawn)
inactive: [2] 97 % of control | endpoint: mean survival time, dose: 200.0 mg/kg/injection, schedule: Q04DX003 (ip), vehicle: saline 92 % of control

CC1(NO)CCCCC1
inactive: endpoint: mean survival time, dose: 100.0 mg/kg/injection, schedule: Q01DX001 (ip), vehicle: Klucel (hydroxypropylcellulose) (HPC) 100 % of control | endpoint: mean survival time, dose: 200.0 mg/kg/injection, schedule: Q01DX001 (ip), vehicle: Klucel (hydroxypropylcellulose) (HPC) 94 % of control

CN/N=C/c1[nH]c(=O)[nH]c(=O)c1C
inactive: [1] 93 % of control | endpoint: mean survival time, dose: 200.0 mg/kg/injection, schedule: Q01DX001 (ip), vehicle: saline 96 % of control | endpoint: mean survival time, dose: 400.0 mg/kg/injection, schedule: Q01DX001 (ip), vehicle: saline 104 % of control
